Biological target: T1, Kv7.2/7.3 (Homo sapiens, UniProt O43525+O43526)
T1 construct: host or cells: HEK cells, tetracycline-inducible expression
Test: Kv7.2/7.3 activation assay, QPatch planar patch-clamp, single concentration screen
Format: cell-based
Design: key: <1.2-fold increase over baseline (−); +/−: as a range from <1.2-fold increase over baseline (−) up to >6-fold increase over baseline (+++); as a range from <1.2-fold increase over baseline (−) up to >6-fold increase over baseline (+++); as a range from <1.2-fold increase over baseline (−) up to >6-fold increase over baseline (+++); >6-fold increase over baseline (+++)
Settings: Kv7.2/Kv7.3 co-expressing HEK cells, compound 3 μM, steady-state current at end of 2 s pulse to −30 mV
Protocol: The ability of compounds to potentiate K-currents in Kv7.2/7.3 containing HEK cells was assessed using planar patch-clamp on the QPatch automated screening platform.
Cell Line: The hKv7.2/7.3 cell line was obtained from Chantest (Cleveland, OH 44128) cat. #CT6147. These HEK cells will express the Kv7.2/7.3 ion channels when induced.
Cell Culture: Cells were maintained in a media containing DMEM/F12; 50/50 (GIBCO cat. #11330), 10% Fetal Bovine Serum (FBS) (GIBCO cat. #26140), 100 units/mL Penicillin-Streptomycin (GIBCO cat. #15140), 0.005 mg/mL Blasticidin (INVIVOGEN cat. #ant-bl-1), 0.5 mg/mL Geneticin (GIBCO cat. #10131), 0.1 mg/ml Zeocin (GIBCO cat. #R25001). Cells used in the electrophysiology assay were maintained in a media without Blasticidin, Geneticin and Zeocin for 2 days and channel expression was induced by adding tetracycline (BIOLINE cat. #BIO-87030) at a final concentration of 1 mg/mL. Cells were grown in T-175 flask to ˜75% confluency. Currents were recorded 24 hours after channel induction.
Compound Plates: Test compounds were prepared by performing serial dilutions on a Biomek NX^P (BECKMAN COULTER). Final dilutions were made in external recording solution with a final DMSO concentration of 0.1% DMSO. For single concentration screens each plate had 10 μM retigabine as a positive control and 0.1% DMSO as a negative control.
Electrophysiology: On the day of the experiment cells were washed with Hank's Balanced Salt Solution (HBBS) (GIBCO cat. #14175) and harvested with Tryple (GIBCO cat. #12604). Cells were then centrifuged at 2000 rpm for 5 minutes and resuspended in CHO-S-SFM (GIBCO cat. #12052) at ˜3×10^6 cells/mL. Cells were stirred for 30 minutes before experiments were started. External recording solution contained (in mM): NaCl (145), KCl (4), CaCl2 (2), MgCl2 (1), HEPES (10) and Glucose (10); pH was adjusted to 7.4 with NaOH and the osmolarity was adjusted to 300-305 mOsM with sucrose if necessary. Internal solution contained (in mM): KCl (125), KF (10), EGTA (5), Na2ATP (5), MgCl2 (3.2), HEPES (5); pH was adjusted to 7.2 with KOH and the osmolarity was adjusted to 298-302 mOsM with sucrose.
Potassium channel activity was measured on the QPatch HTX (Sophion Bioscience) using QPlates with 48-wells/plate. Each cell was taken as an independent experiment and only one compound was tested per well. Potassium channel activity was elicited by holding at −80 mV and stepping to −30 mV for 2 s followed by a 100 ms pulse to −120 mV.
Single concentration screen: Baseline conditions were obtained by recording 5 sweeps in the external solution only, this was repeated for three applications of the external solution. […] The steady-state current at the end of the 2 s pulse to −30 mV was measured to determine the fold increase from baseline.

SMILES | Kv7.2/7.3 Activity: increase in current over baseline
CC(O)(CC(=O)Nc1nc2ccc(C#N)cc2n1C1CCC1)C1CC1 (centres unmarked) [Example 28, N-(6-cyano-1-cyclobutyl-1H-benzo[d]imidazol-2-yl)-3-cyclopropyl-3-hydroxybutanamide] | +/−
C[C@](O)(CC(=O)Nc1nc2ccc(C#N)cc2n1C1CCC1)c1ccccc1 [Example 29, (S)-N-(6-cyano-1-cyclobutyl-1H-benzo[d]imidazol-2-yl)-3-hydroxy-3-phenylbutanamide] | +
C[C@@](O)(CC(=O)Nc1nc2ccc(C#N)cc2n1C1CCC1)c1ccccc1 [Example 30, (R)-N-(6-cyano-1-cyclobutyl-1H-benzo[d]imidazol-2-yl)-3-hydroxy-3-phenylbutanamide] | +
CC(C)(C)CC(=O)Nc1nc2ccc(C#N)cc2n1-c1ccc(F)cc1 [Example 31, N-(6-cyano-1-(4-fluorophenyl)-1H-benzo[d]imidazol-2-yl)-3,3-dimethylbutanamide] | +
CC(C)[C@H](C)C(=O)Nc1nc2ccc(C#N)cc2n1-c1ccc(F)cc1 [Example 32, (S)-N-(6-cyano-1-(4-fluorophenyl)-1H-benzo[d]imidazol-2-yl)-2,3-dimethylbutanamide] | +
CC1(C)C[C@@H]1C(=O)Nc1nc2ccc(C#N)cc2n1-c1ccc(F)cc1 [Example 33, (S)-N-(6-cyano-1-(4-fluorophenyl)-1H-benzo[d]imidazol-2-yl)-2,2-dimethylcyclopropane-1-carboxamide] | +
CC(C)(C)CC(=O)Nc1nc2ccc(C(F)(F)F)cc2n1C1CCC1 [Example 34, N-(1-cyclobutyl-6-(trifluoromethyl)-1H-benzo[d]imidazol-2-yl)-3,3-dimethylbutanamide] | ++
CC(C)(O)CC(=O)Nc1nc2ccc(C(F)(F)F)cc2n1C1CCC1 [Example 35, N-(1-cyclobutyl-6-(trifluoromethyl)-1H-benzo[d]imidazol-2-yl)-3-hydroxy-3-methylbutanamide] | +
CC(C)[C@H](C)C(=O)Nc1nc2ccc(C(F)(F)F)cc2n1C1CCC1 [Example 36, (S)-N-(1-cyclobutyl-6-(trifluoromethyl)-1H-benzo[d]imidazol-2-yl)-2,3-dimethylbutanamide] | +
CC1(C)C[C@@H]1C(=O)Nc1nc2ccc(C(F)(F)F)cc2n1C1CCC1 [Example 37, (S)-N-(1-cyclobutyl-6-(trifluoromethyl)-1H-benzo[d]imidazol-2-yl)-2,2-dimethylcyclopropane-1-carboxamide] | +
O=C(Nc1nc2ccc(C(F)(F)F)cc2n1C1CCC1)C1CC(F)(F)C1 [Example 38, N-(1-cyclobutyl-6-(trifluoromethyl)-1H-benzo[d]imidazol-2-yl)-3,3-difluorocyclobutane-1-carboxamide] | +/−
O=C(CC(C(F)(F)F)C(F)(F)F)Nc1nc2ccc(C(F)(F)F)cc2n1C1CCC1 [Example 39, N-(1-cyclobutyl-6-(trifluoromethyl)-1H-benzo[d]imidazol-2-yl)-4,4,4-trifluoro-3-(trifluoromethyl)butanamide] | +
CC(C)[C@@H](C)C(=O)Nc1nc2ccc(C(F)(F)F)cc2n1C1CCC1 [Example 40, (R)-N-(1-cyclobutyl-6-(trifluoromethyl)-1H-benzo[d]imidazol-2-yl)-2,3-dimethylbutanamide] | +
CC(C)(O)[C@H]1C[C@@H]1C(=O)Nc1nc2ccc(C(F)(F)F)cc2n1C1CCC1 [Example 41, (1S,2S)-N-(1-cyclobutyl-6-(trifluoromethyl)-1H-benzo[d]imidazol-2-yl)-2-(2-hydroxypropan-2-yl)cyclopropane-1-carboxamide] | +/−
C[C@](O)(C(=O)Nc1nc2ccc(C(F)(F)F)cc2n1C1CCC1)C(F)(F)F [Example 42, (S)-N-(1-cyclobutyl-6-(trifluoromethyl)-1H-benzo[d]imidazol-2-yl)-3,3,3-trifluoro-2-hydroxy-2-methylpropanamide] | +/−
O=C(CC1(O)CCC1)Nc1nc2ccc(C(F)(F)F)cc2n1C1CCC1 [Example 44, N-(1-cyclobutyl-6-(trifluoromethyl)-1H-benzo[d]imidazol-2-yl)-2-(1-hydroxycyclobutyl)acetamide] | +
Cc1cc(-n2c(NC(=O)[C@H]3CC3(C)C)nc3ccc(C(F)(F)F)cc32)on1 [Example 45, (S)-2,2-Dimethyl-N-(1-(3-methylisoxazol-5-yl)-6-(trifluoromethyl)-1H-benzo[d]imidazol-2-yl)cyclopropanecarboxamide] | +
Cc1cc(-n2c(NC(=O)CC(C)(C)C)nc3ccc(C(F)(F)F)cc32)on1 [Example 46, 3,3-dimethyl-N-(1-(3-methylisoxazol-5-yl)-6-(trifluoromethyl)-1H-benzo[d]imidazol-2-yl)butanamide] | +
Cc1cc(-n2c(NC(=O)[C@@H](C)C(C)C)nc3ccc(C(F)(F)F)cc32)on1 [Example 47, (S)-2,3-dimethyl-N-(1-(3-methylisoxazol-5-yl)-6-(trifluoromethyl)-1H-benzo[d]imidazol-2-yl)butanamide] | +
Cc1cc(-n2c(NC(=O)[C@@H](C)C(C)(C)C)nc3ccc(C(F)(F)F)cc32)on1 [Example 48, (S)-2,3,3-trimethyl-N-(1-(3-methylisoxazol-5-yl)-6-(trifluoromethyl)-1H-benzo[d]imidazol-2-yl)butanamide] | +++ (>6-fold increase over baseline (+++))
Cc1cc(-n2c(NC(=O)[C@@H](C)C(C)(C)C)nc3ccc(C#N)cc32)on1 [Example 49, (S)-N-(6-cyano-1-(3-methylisoxazol-5-yl)-1H-benzo[d]imidazol-2-yl)-2,3,3-trimethylbutanamide] | +
CCOC(=O)c1ccc2nc(NC(=O)CC(C)(C)C)n(C3CCC3)c2c1 [Example 50, ethyl 1-cyclobutyl-2-(3,3-dimethylbutanamido)-1H-benzo[d]imidazole-6-carboxylate] | +/−
CC(C)(C)CC(=O)Nc1nc2ccc(CO)cc2n1C1CCC1 [Example 51, N-(1-cyclobutyl-6-(hydroxymethyl)-1H-benzo[d]imidazol-2-yl)-3,3-dimethylbutanamide] | +
CC(C)[C@H](C)C(=O)Nc1nc2ccc(CO)cc2n1C1CCC1 [Example 52, (S)-N-(1-cyclobutyl-6-(hydroxymethyl)-1H-benzo[d]imidazol-2-yl)-2,3-dimethylbutanamide] | +/−
CC(C)(C)CC(=O)Nc1nc2ccc(C(C)(C)O)cc2n1C1CCC1 [Example 53, N-(1-cyclobutyl-6-(2-hydroxypropan-2-yl)-1H-benzo[d]imidazol-2-yl)-3,3-dimethylbutanamide] | +
CC(C)[C@H](C)C(=O)Nc1nc2ccc(C(C)(C)O)cc2n1C1CCC1 [Example 54, (S)-N-(1-cyclobutyl-6-(2-hydroxypropan-2-yl)-1H-benzo[d]imidazol-2-yl)-2,3-dimethylbutanamide] | ++
